Results taken from patent EP2459571B1, “NITROIMIDAZOOXAZINES AND THEIR USES IN ANTI-TUBERCULAR THERAPY” (priority 2009, dated 2011).
Values after ≈ are worked out from the molar mass of the structure shown.

Tests used:
[1] = test system: replicating Mycobacterium tuberculosis; experiment: MIC, microplate Alamar blue assay (MABA), 8 day; format: cell-based; conditions: 192 h, read-out: MIC MABA (aerobic)
[2] = test system: M. tuberculosis bacteria in the non-replicating state; experiment: microbe, parasite or virus in culture; format: cell-based; conditions: Mycobacterium tuberculosis, 264 h, low oxygen, 11 day, read-out: MIC LORA (anaerobic)
[3] = Stability to human liver microsomes; format: in vitro ADME; conditions: pH 7.4, 37 °C, 0.5 mg/mL protein, NADPH regenerating system, 60 min
[4] = Stability to mouse liver microsomes; format: in vitro ADME, CD-1 mouse; conditions: pH 7.4, 37 °C, 0.5 mg/mL protein, NADPH regenerating system, 60 min
M. tuberculosis Erdman [5] = test system: M. tuberculosis Erdman; set-up: species or system BALB/c mice; conditions: mouse, po, 100 mg/kg
in vivo = conditions: mouse, po, 40 mg/kg
M. tuberculosis Erdman [6] = format: in vivo, BALB/c mice; conditions: mouse, in vivo, po, 100 mg/kg
[7] = CD-1 mice, oral, 40 mg/kg; for t½ (h) plasma: suspension in 0.5% carboxymethylcellulose/0.08% Tween 80

SMILES | MIC [1] [µM] | MIC [2] [µM] | remaining at 1 h, 1 µM [3] [%] | remaining at 1 h, 1 µM [4] [%] | In vivo efficacy vs PA-824, Acute (M. tuberculosis Erdman [5]) | AUC (in vivo) [ng·h/mL] | In vivo efficacy vs PA-824, Chronic (M. tuberculosis Erdman [6]) | Cmax plasma [7] [ng/mL] | t½ (h) plasma [7] [h]
O=[N+]([O-])c1cn2c(n1)OC[C@@H](OCc1ccn(-c3ccc(OC(F)(F)F)cc3)n1)C2 [compound 10, (6S)-2-nitro-6-({1-[4-(trifluoromethoxy)phenyl]-1H-pyrazol-3-yl}methoxy)-6,7-dihydro-5H-imidazo[2,1-A][1,3]oxazine] | 0.05 (≈ 0.0213 µg/mL) | 0.61 (≈ 0.259 µg/mL) | 87 | 67 | 41 | 31500 |  |  | 
O=[N+]([O-])c1cn2c(n1)OC[C@@H](OCc1ccc(Cc3ccc(OC(F)(F)F)cc3)cc1)C2 [compound 17, (6S)-2-Nitro-6-({4-[4-(trifluoromethoxy)benzyl]benzyl}oxy)-6,7-dihydro-5H-imidazo[2,1-b][1,3]oxazine] | 0.02 (≈ 0.00899 µg/mL) | 1.1 (≈ 0.494 µg/mL) | 85 | 70 |  |  |  |  | 
O=[N+]([O-])c1cn2c(n1)OC[C@@H](OCC#Cc1ccc(-c3ccc(OC(F)(F)F)cc3)cc1)C2 [compound 30, (6S)-2-Nitro-6-({3-[4'-(trifluoromethoxy)[1,1'-biphenyl]-4-yl]-2-propynyl}oxy)-6,7-dihydro-5H-imidazo[2,1-b][1,3]oxazine] | 0.16 (≈ 0.0735 µg/mL) | 0.99 (≈ 0.455 µg/mL) |  |  | 89 | 13600 | 11 | 570 | 7.5
O=[N+]([O-])c1cn2c(n1)OC[C@@H](OCc1ccc(/C=C/c3ccc(OC(F)(F)F)cc3)cc1)C2 [compound 31, (6S)-2-Nitro-6-[(4-{(E)-2-[4-(trifluoromethoxy)phenyl]ethenyl}benzyl)oxy]-6,7-dihydro-5H-imidazo[2,1-b][1,3]oxazine] | 0.02 (≈ 0.00923 µg/mL) | 27 (≈ 12.5 µg/mL) | 99 | 98 | 5.8 |  |  |  | 
O=[N+]([O-])c1cn2c(n1)OC[C@@H](OCc1ccc(-c3ccc(OC(F)(F)F)cc3)cc1F)C2 [compound 12, (6S)-6-{[3-Fluoro-4'-(trifluoromethoxy)[1,1'-biphenyl]-4-yl]methoxy}-2-nitro-6,7-dihydro-5H-imidazo[2,1-b][1,3]oxazine] | 0.017 (≈ 0.00771 µg/mL) | 1.2 (≈ 0.544 µg/mL) |  |  | 33 | 549000 | 16 | 6700 | 
O=[N+]([O-])c1cn2c(n1)OC[C@@H](OCc1ccc(-c3ccc(C(F)(F)F)cn3)cc1)C2 [compound 8, (6S)-2-Nitro-6-({4-[5-(trifluoromethyl)-2-pyridinyl]benzyl}oxy)-6,7-dihydro-5H-imidazo[2,1-b][1,3]oxazine] | 0.06 (≈ 0.0252 µg/mL) | 1 (≈ 0.42 µg/mL) |  |  | 33 | 67300 | 1.7 | 1100 | 8.8
O=[N+]([O-])c1cn2c(n1)OC[C@@H](OCc1ccc(C#Cc3ccc(C(F)(F)F)nc3)cn1)C2 [compound 25, (6S)-2-Nitro-6-[(5-{[6-(trifluoromethyl)-3-pyridinyl]ethynyl}-2-pyridinyl)methoxy]-6,7-dihydro-5H-imidazo[2,1-b][1,3]oxazine] | 0.035 (≈ 0.0156 µg/mL) | 0.74 (≈ 0.33 µg/mL) | 88 | 91 |  |  |  |  | 
O=[N+]([O-])c1cn2c(n1)OC[C@@H](OCc1ccc(-c3ccc(F)cc3)nc1)C2 [compound 5, (6S)-6-{[6-(4-Fluorophenyl)-3-pyridinyl]methoxy}-2-nitro-6,7-dihydro-5H-imidazo[2,1-b][1,3]oxazine] | 0.06 (≈ 0.0222 µg/mL) | 2.9 (≈ 1.07 µg/mL) |  |  | 7.8 | 136000 | 20 | 5300 | 2.7
